Results published in US20230085307A1, “PYRIDAZINONE COMPOUND AND HERBICIDE” (NISSAN CHEMICAL CORPORATION, priority 2019, published 2023).

What was measured:
[1] = tested on: barnyard grass; assay: Test Example 3: herbicidal effect by foliage application, Wagner pot (Table 18, symbol H); format: in vivo, barnyard grass (Echinochloa crus-galli); conditions: 320 g/ha
Procedure, shortened: (§1)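 Plants were sown in alluvial soil held under 0.1–0.5 cm standing water and grown 14 days in a greenhouse at 25–30 °C. An emulsifiable formulation, water-diluted to the set dose, was then sprayed onto the foliage, and effects were scored three weeks later using previously defined criteria.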

[2] = tested on: Chinese sprangletop; assay: Test Example 3: herbicidal effect by foliage application, Wagner pot (Table 18, symbol D); format: in vivo, chinese sprangletop (Leptochloa chinensis); conditions: 320 g/ha
Procedure, shortened: as §1

[3] = tested on: rice flat sedge; assay: Test Example 3: herbicidal effect by foliage application, Wagner pot (Table 18, symbol E); format: in vivo, rice flat sedge (Cyperus iria); conditions: 320 g/ha
Procedure, shortened: as §1

[4] = tested on: southern crabgrass; assay: Test Example 5: herbicidal effect by foliage application, plastic box (Table 20, symbol F); format: in vivo, southern crabgrass (Digitaria ciliaris); conditions: 320 g/ha; for herbicidal effect on F: southern crabgrass (evaluation grade 0-5): foliage application after 14-day growth, evaluated three weeks after application
Procedure, shortened: (§2)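 Plants sown in sterilized diluvial soil and grown 14 days in a greenhouse at 25° C to 30° C, then sprayed on the foliage with the compound's emulsion diluted in water to a predetermined herbicide amount. Injury to weeds and crops scored three weeks after application on a visual rating scale.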

[5] = tested on: green foxtail; assay: Test Example 5: herbicidal effect by foliage application, plastic box (Table 20, symbol G); format: in vivo, green foxtail (Setaria viridis); conditions: 320 g/ha; for herbicidal effect on G: green foxtail (evaluation grade 0-5): foliage application after 14-day growth, evaluated three weeks after application
Procedure, shortened: as §2

[6] = tested on: barnyard grass; assay: Test Example 5: herbicidal effect by foliage application, plastic box (Table 20, symbol H); format: in vivo, barnyard grass (Echinochloa crus-galli); conditions: 320 g/ha; for herbicidal effect on H: barnyard grass (evaluation grade 0-5): foliage application after 14-day growth, evaluated three weeks after application
Procedure, shortened: as §2

[7] = tested on: wild oat; assay: Test Example 5: herbicidal effect by foliage application, plastic box (Table 20, symbol I); format: in vivo, wild oat (Avena fatua); conditions: 320 g/ha; for herbicidal effect on I: wild oat (evaluation grade 0-5): foliage application after 14-day growth, evaluated three weeks after application
Procedure, shortened: as §2

[8] = tested on: blackgrass; assay: Test Example 5: herbicidal effect by foliage application, plastic box (Table 20, symbol J); format: in vivo, blackgrass (Alopecurus myosuroides); conditions: 320 g/ha; for herbicidal effect on J: blackgrass (evaluation grade 0-5): foliage application after 14-day growth, evaluated three weeks after application
Procedure, shortened: as §2

[9] = tested on: Italian ryegrass; assay: Test Example 5: herbicidal effect by foliage application, plastic box (Table 20, symbol K); format: in vivo, Italian ryegrass (Lolium multiflorum); conditions: 320 g/ha; for herbicidal effect on K: Italian ryegrass (evaluation grade 0-5): foliage application after 14-day growth, evaluated three weeks after application
Procedure, shortened: as §2

[10] = tested on: windgrass; assay: Test Example 5: herbicidal effect by foliage application, plastic box (Table 20, symbol L); format: in vivo, windgrass (Apera spica-venti); conditions: 320 g/ha; for herbicidal effect on L: windgrass (evaluation grade 0-5): foliage application after 14-day growth, evaluated three weeks after application
Procedure, shortened: as §2

[11] = tested on: velvetleaf; assay: Test Example 5: herbicidal effect by foliage application, plastic box (Table 20, symbol M); format: in vivo, velvetleaf (Abutilon theophrasti); conditions: 320 g/ha; for herbicidal effect on M: velvetleaf (evaluation grade 0-5): foliage application after 14-day growth, evaluated three weeks after application
Procedure, shortened: as §2

[12] = tested on: redroot pigweed; assay: Test Example 5: herbicidal effect by foliage application, plastic box (Table 20, symbol N); format: in vivo, redroot pigweed (Amaranthus retroflexus); conditions: 320 g/ha; for herbicidal effect on N: redroot pigweed (evaluation grade 0-5): foliage application after 14-day growth, evaluated three weeks after application
Procedure, shortened: as §2

[13] = tested on: lambsquarters; assay: Test Example 5: herbicidal effect by foliage application, plastic box (Table 20, symbol O); format: in vivo, lambsquarters (Chenopodium album); conditions: 320 g/ha; for herbicidal effect on O: lambsquarters (evaluation grade 0-5): foliage application after 14-day growth, evaluated three weeks after application
Procedure, shortened: as §2

[14] = tested on: chickweed; assay: Test Example 5: herbicidal effect by foliage application, plastic box (Table 20, symbol P); format: in vivo, common chickweed (Stellaria media); conditions: 320 g/ha; for herbicidal effect on P: chickweed (evaluation grade 0-5): foliage application after 14-day growth, evaluated three weeks after application
Procedure, shortened: as §2

[15] = tested on: persian speedwell; assay: Test Example 5: herbicidal effect by foliage application, plastic box (Table 20, symbol R); format: in vivo, Persian speedwell (Veronica persica); conditions: 320 g/ha; for herbicidal effect on R: persian speedwell (evaluation grade 0-5): foliage application after 14-day growth, evaluated three weeks after application
Procedure, shortened: as §2

[16] = foliage application, three weeks after application

| Compound | herbicidal effect on barnyard grass (H) [1] | herbicidal effect on Chinese sprangletop (D) [2] | herbicidal effect on rice flat sedge (E) [3] | herbicidal effect on F: southern crabgrass (evaluation grade 0-5) [4] | herbicidal effect on G: green foxtail (evaluation grade 0-5) [5] | herbicidal effect on H: barnyard grass (evaluation grade 0-5) [6] | herbicidal effect on I: wild oat (evaluation grade 0-5) [7] | herbicidal effect on J: blackgrass (evaluation grade 0-5) [8] | herbicidal effect on K: Italian ryegrass (evaluation grade 0-5) [9] | herbicidal effect on L: windgrass (evaluation grade 0-5) [10] | herbicidal effect on M: velvetleaf (evaluation grade 0-5) [11] | herbicidal effect on N: redroot pigweed (evaluation grade 0-5) [12] | herbicidal effect on O: lambsquarters (evaluation grade 0-5) [13] | herbicidal effect on P: chickweed (evaluation grade 0-5) [14] | herbicidal effect on R: persian speedwell (evaluation grade 0-5) [15] | also measured |
| --- | --- | --- | --- | --- | --- | --- | --- | --- | --- | --- | --- | --- | --- | --- | --- | --- |
| CCOc1ccccc1-c1sc2cc(O)ccc2c1-c1c(O)c(C)nn(C)c1=O [3-097] | 4 (Herbicidal rate of 70% or more and less than 90%) | 4 (Herbicidal rate of 70% or more and less than 90%) | 3 (Herbicidal rate of 40% or more and less than 70%) |  |  |  |  |  |  |  |  |  |  |  |  | F: southern crabgrass, herbicidal effect grade [4, 16]: 4 (Herbicidal rate of 70% or more and less than 90%); G: green foxtail, herbicidal effect grade [5, 16]: 5 (Herbicidal rate of 90% or more (almost completely withered)); H: barnyard grass, herbicidal effect grade [6, 16]: 2 (Herbicidal rate of 20% or more and less than 40%); I: wild oat, herbicidal effect grade [7, 16]: 1 (Herbicidal rate of 5% or more and less than 20%); J: blackgrass, herbicidal effect grade [8, 16]: 0 (Herbicidal rate of 5% or less (almost no effect)); K: Italian ryegrass, herbicidal effect grade [9, 16]: 0 (Herbicidal rate of 5% or less (almost no effect)); L: windgrass, herbicidal effect grade [10, 16]: 2 (Herbicidal rate of 20% or more and less than 40%); M: velvetleaf, herbicidal effect grade [11, 16]: 3 (Herbicidal rate of 40% or more and less than 70%); N: redroot pigweed, herbicidal effect grade [12, 16]: 4 (Herbicidal rate of 70% or more and less than 90%); O: lambsquarters, herbicidal effect grade [13, 16]: 3 (Herbicidal rate of 40% or more and less than 70%); P: chickweed, herbicidal effect grade [14, 16]: 3 (Herbicidal rate of 40% or more and less than 70%); R: persian speedwell, herbicidal effect grade [15, 16]: 3 (Herbicidal rate of 40% or more and less than 70%) |
| CCCC(=O)Oc1c(C)nn(C)c(=O)c1-c1c(-c2ccc(OC(F)(F)F)cc2)sc2cc(Cl)ccc12 [3-150] | 5 (Herbicidal rate of 90% or more (almost completely withered)) | 3 (Herbicidal rate of 40% or more and less than 70%) | 2 (Herbicidal rate of 20% or more and less than 40%) | 0 (Herbicidal rate of 5% or less (almost no effect)) | 0 (Herbicidal rate of 5% or less (almost no effect)) | 3 (Herbicidal rate of 40% or more and less than 70%) | 0 (Herbicidal rate of 5% or less (almost no effect)) | 0 (Herbicidal rate of 5% or less (almost no effect)) | 0 (Herbicidal rate of 5% or less (almost no effect)) | 0 (Herbicidal rate of 5% or less (almost no effect)) | 2 (Herbicidal rate of 20% or more and less than 40%) | 3 (Herbicidal rate of 40% or more and less than 70%) | 4 (Herbicidal rate of 70% or more and less than 90%) | 3 (Herbicidal rate of 40% or more and less than 70%) | 5 (Herbicidal rate of 90% or more (almost completely withered)) |  |
| C#CCOc1c(C)nn(C)c(=O)c1-c1c(-c2ccccc2OC)sc2cc(OC)ccc12 [3-154] | 3 (Herbicidal rate of 40% or more and less than 70%) | 2 (Herbicidal rate of 20% or more and less than 40%) | 3 (Herbicidal rate of 40% or more and less than 70%) | 0 (Herbicidal rate of 5% or less (almost no effect)) | 3 (Herbicidal rate of 40% or more and less than 70%) | 3 (Herbicidal rate of 40% or more and less than 70%) | 0 (Herbicidal rate of 5% or less (almost no effect)) | 0 (Herbicidal rate of 5% or less (almost no effect)) | 0 (Herbicidal rate of 5% or less (almost no effect)) | 0 (Herbicidal rate of 5% or less (almost no effect)) | 0 (Herbicidal rate of 5% or less (almost no effect)) | 4 (Herbicidal rate of 70% or more and less than 90%) | 3 (Herbicidal rate of 40% or more and less than 70%) | 5 (Herbicidal rate of 90% or more (almost completely withered)) | 3 (Herbicidal rate of 40% or more and less than 70%) |  |
| Cc1nn(C)c(=O)c(-c2c(-c3ccc(C(F)(F)F)cc3)sc3c(Cl)cccc23)c1O [4-029] | 3 (Herbicidal rate of 40% or more and less than 70%) | 0 (Herbicidal rate of 5% or less (almost no effect)) | 0 (Herbicidal rate of 5% or less (almost no effect)) | 0 (Herbicidal rate of 5% or less (almost no effect)) | 0 (Herbicidal rate of 5% or less (almost no effect)) | 0 (Herbicidal rate of 5% or less (almost no effect)) | 0 (Herbicidal rate of 5% or less (almost no effect)) | 0 (Herbicidal rate of 5% or less (almost no effect)) | 0 (Herbicidal rate of 5% or less (almost no effect)) | 4 (Herbicidal rate of 70% or more and less than 90%) | 0 (Herbicidal rate of 5% or less (almost no effect)) | 0 (Herbicidal rate of 5% or less (almost no effect)) | 3 (Herbicidal rate of 40% or more and less than 70%) | 5 (Herbicidal rate of 90% or more (almost completely withered)) | 0 (Herbicidal rate of 5% or less (almost no effect)) |  |
| CCCC(=O)Oc1c(C)nn(C)c(=O)c1-c1c(-c2ccccc2CC)sc2c(Cl)cccc12 [4-063] | 5 (Herbicidal rate of 90% or more (almost completely withered)) | 3 (Herbicidal rate of 40% or more and less than 70%) | 4 (Herbicidal rate of 70% or more and less than 90%) | 0 (Herbicidal rate of 5% or less (almost no effect)) | 0 (Herbicidal rate of 5% or less (almost no effect)) | 0 (Herbicidal rate of 5% or less (almost no effect)) | 0 (Herbicidal rate of 5% or less (almost no effect)) | 0 (Herbicidal rate of 5% or less (almost no effect)) | 0 (Herbicidal rate of 5% or less (almost no effect)) | 0 (Herbicidal rate of 5% or less (almost no effect)) | 0 (Herbicidal rate of 5% or less (almost no effect)) | 3 (Herbicidal rate of 40% or more and less than 70%) | 1 (Herbicidal rate of 5% or more and less than 20%) | 0 (Herbicidal rate of 5% or less (almost no effect)) | 0 (Herbicidal rate of 5% or less (almost no effect)) |  |
